From ChEMBL document CHEMBL6177932 (J Med Chem, 2024)
Calls of active or inactive are those of the source. No cut-off for these calls is given here.

Columns and labels:
[1] = biological target: T1, Vitamin D3 receptor (Mus musculus) (UniProt P48281); assay: Agonist activity at VDR in mouse 4T1 cells assessed as induction of Cyp24a1 gene at 0.1 to 10 uM measured after 24 hrs by RT-qPCR analysis; format: cell-based; conditions: filed as agonist, dose 0.1-10 µM
T1 sequence (whole entry): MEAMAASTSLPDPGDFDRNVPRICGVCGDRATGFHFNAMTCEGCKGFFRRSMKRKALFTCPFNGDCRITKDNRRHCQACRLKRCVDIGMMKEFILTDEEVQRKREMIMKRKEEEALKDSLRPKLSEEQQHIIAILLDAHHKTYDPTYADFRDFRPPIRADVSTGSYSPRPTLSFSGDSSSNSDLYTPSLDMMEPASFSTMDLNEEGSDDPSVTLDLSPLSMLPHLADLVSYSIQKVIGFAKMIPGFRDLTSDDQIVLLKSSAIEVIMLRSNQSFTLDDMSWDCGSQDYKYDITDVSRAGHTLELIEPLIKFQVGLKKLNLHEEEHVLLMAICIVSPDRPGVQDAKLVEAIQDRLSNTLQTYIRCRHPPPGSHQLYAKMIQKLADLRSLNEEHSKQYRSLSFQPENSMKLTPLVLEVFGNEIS

[2] = biological target: T1, Vitamin D3 receptor (Mus musculus); assay: Agonist activity at VDR in mouse 4TO7 cells assessed as induction of Cyp24a1 gene at 0.1 to 10 uM measured after 24 hrs by RT-qPCR analysis; format: cell-based; conditions: filed as agonist, dose 0.1-10 µM
[3] = biological target: T2, Protein deacetylase HDAC6 (Mus musculus) (UniProt Q9Z2V5); assay: Inhibition of HDAC6 in mouse B16-F10 cells assessed as induction of tubulin acetylation at 10 uM measured after 6 hrs by Western blot analysis; format: cell-based
T2 sequence (whole entry): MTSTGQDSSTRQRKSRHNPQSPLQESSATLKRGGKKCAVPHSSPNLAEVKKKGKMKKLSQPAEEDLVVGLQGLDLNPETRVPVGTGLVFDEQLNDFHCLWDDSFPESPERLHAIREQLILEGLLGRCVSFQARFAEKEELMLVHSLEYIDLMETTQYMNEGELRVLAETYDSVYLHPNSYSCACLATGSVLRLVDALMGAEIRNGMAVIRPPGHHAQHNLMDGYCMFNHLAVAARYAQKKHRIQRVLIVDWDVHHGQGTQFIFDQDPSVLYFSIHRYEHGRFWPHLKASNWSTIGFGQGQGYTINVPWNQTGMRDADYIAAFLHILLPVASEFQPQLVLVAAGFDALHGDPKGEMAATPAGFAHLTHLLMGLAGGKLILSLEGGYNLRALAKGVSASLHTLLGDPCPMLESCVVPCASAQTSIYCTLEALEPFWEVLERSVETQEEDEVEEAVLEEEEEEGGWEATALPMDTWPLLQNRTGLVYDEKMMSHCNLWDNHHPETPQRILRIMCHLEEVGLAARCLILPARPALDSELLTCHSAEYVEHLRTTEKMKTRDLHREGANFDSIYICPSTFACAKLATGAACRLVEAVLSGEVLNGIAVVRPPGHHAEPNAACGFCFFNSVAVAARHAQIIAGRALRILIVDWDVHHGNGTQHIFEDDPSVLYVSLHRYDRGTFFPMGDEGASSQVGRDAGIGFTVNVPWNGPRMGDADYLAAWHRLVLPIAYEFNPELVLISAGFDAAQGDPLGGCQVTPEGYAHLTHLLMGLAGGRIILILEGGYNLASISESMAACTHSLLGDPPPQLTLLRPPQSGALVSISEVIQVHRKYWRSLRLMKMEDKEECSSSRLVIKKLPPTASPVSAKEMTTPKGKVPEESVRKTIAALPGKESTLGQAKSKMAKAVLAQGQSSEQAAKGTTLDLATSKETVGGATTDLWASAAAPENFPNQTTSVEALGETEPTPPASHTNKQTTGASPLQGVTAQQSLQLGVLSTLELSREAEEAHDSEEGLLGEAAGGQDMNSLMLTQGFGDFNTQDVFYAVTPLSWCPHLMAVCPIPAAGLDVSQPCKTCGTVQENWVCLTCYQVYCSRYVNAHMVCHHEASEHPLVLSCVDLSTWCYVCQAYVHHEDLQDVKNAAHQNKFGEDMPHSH

B16-F10 [4] = assay: Inhibition of class 1 HDAC in mouse B16-F10 cells assessed as induction of H3K9 acetylation at 10 uM measured after 6 hrs by Western blot analysis; format: cell-based
B16-F10 [5] = assay: Inhibition of class 1 HDAC in mouse B16-F10 cells assessed as induction of H3K27 acetylation at 10 uM measured after 6 hrs by Western blot analysis; format: cell-based
[6] = Toxicity in mouse B16-F10 cells implanted C57BL/6 mouse at 50 mg/kg, ip administered daily for 28 days; format: organism-based; conditions: in vivo, time 28 day
[7] = Toxicity in mouse B16-F10 cells implanted C57BL/6 mouse assessed as effect on body weight at 50 mg/kg, ip administered daily for 28 days; format: organism-based; conditions: in vivo, time 28 day
B16-F10 [8] = assay: Antitumor activity against mouse B16-F10 cells implanted in C57BL/6 mouse assessed as reduction in tumor burden at 50 mg/kg, ip administered every second day for 18 days; format: functional, organism-based; conditions: time 18.0 day
[9] = biological target: T2, Protein deacetylase HDAC6 (Mus musculus); assay: Inhibition of HDAC6 in mouse 4TO7 cells assessed as induction of tubulin acetylation at 10 uM measured after 6 hrs by Western blot analysis; format: cell-based
4TO7 [10] = assay: Inhibition of class 1 HDAC in mouse 4TO7 cells assessed as induction of H3K9 acetylation at 10 uM measured after 6 hrs by Western blot analysis; format: cell-based
4TO7 [11] = assay: Inhibition of class 1 HDAC in mouse 4TO7 cells assessed as induction of H3K27 acetylation at 10 uM measured after 6 hrs by Western blot analysis; format: cell-based
4T1 [12] = conditions: Mus musculus, time 24.0 hrs
[13] = biological target: T2, Protein deacetylase HDAC6 (Mus musculus); assay: Inhibition of HDAC6 in mouse 4T1 cells assessed as induction of tubulin acetylation at 10 uM measured after 6 hrs by Western blot analysis; format: cell-based
4T1 [14] = assay: Inhibition of class 1 HDAC in mouse 4T1 cells assessed as induction of H3K9 acetylation at 10 uM measured after 6 hrs by Western blot analysis; format: cell-based
4T1 [15] = assay: Inhibition of class 1 HDAC in mouse 4T1 cells assessed as induction of H3K27 acetylation at 10 uM measured after 6 hrs by Western blot analysis; format: cell-based
B16-F10 [16] = assay: Cytotoxicity against mouse B16-F10 cells assessed as reduction in cell viability at 0.01 to 100 uM measured after 24 hrs by RealTime-glo cell viability assay; format: functional, cell-based; conditions: dose 0.01-100 µM
[17] = Toxicity in mouse B16-F10 cells implanted C57BL/6 mouse at 0.2 mg/kg, ip administered daily for 28 days; format: organism-based; conditions: in vivo, time 28 day
[18] = Toxicity in mouse B16-F10 cells implanted C57BL/6 mouse assessed as effect on body weight at 0.2 mg/kg, ip administered daily for 28 days; format: organism-based; conditions: in vivo, time 28 day
B16-F10 [19] = assay: Antitumor activity against mouse B16-F10 cells implanted in C57BL/6 mouse assessed as reduction in tumor burden at 0.2 mg/kg, ip administered every second day for 18 days; format: functional, organism-based; conditions: time 18.0 day
[20] = Toxicity in 4T1 cells implanted BALB/c mouse assessed as stress at 0.2 mg/kg, ip administered daily for 18 days; format: organism-based; conditions: in vivo, 432 h, time 18 day
[21] = Toxicity in 4T1 cells implanted BALB/c mouse assessed as body weight loss at 0.2 mg/kg, ip administered daily for 18 days; format: organism-based; conditions: in vivo, 432 h, time 18 day
4T1 [22] = assay: Antitumor activity against mouse 4T1 cells implanted in BALB/c mouse assessed as reduction in tumor burden at 0.2 mg/kg, ip administered daily for 18 days; format: functional, organism-based; conditions: time 18.0 day
Mus musculus [23] = assay: Immunomodulatory activity in mouse 4T1 cells implanted BALB/c mouse assessed as reduction in Ccl2 gene expression at 0.2 mg/kg, ip administered daily for 18 days by RT-qPCR analysis; format: functional, organism-based; conditions: time 18.0 day
Mus musculus [24] = assay: Immunomodulatory activity in mouse 4T1 cells implanted BALB/c mouse assessed as reduction in Ccl5 gene expression at 0.2 mg/kg, ip administered daily for 18 days by RT-qPCR analysis; format: functional, organism-based; conditions: time 18.0 day
Mus musculus [25] = assay: Immunomodulatory activity in mouse 4T1 cells implanted BALB/c mouse assessed as reduction in Ccl20 gene expression at 0.2 mg/kg, ip administered daily for 18 days by RT-qPCR analysis; format: functional, organism-based; conditions: time 18.0 day
Mus musculus [26] = assay: Immunomodulatory activity in mouse 4T1 cells implanted BALB/c mouse assessed as reduction in Cxcl10 gene expression at 0.2 mg/kg, ip administered daily for 18 days by RT-qPCR analysis; format: functional, organism-based; conditions: time 18.0 day
Mus musculus [27] = assay: Immunomodulatory activity in mouse 4T1 cells implanted BALB/c mouse assessed as induction of Il1a gene expression at 0.2 mg/kg, ip administered daily for 18 days by RT-qPCR analysis; format: functional, organism-based; conditions: time 18.0 day

With `CCC(CC)(c1ccc(C(=O)NCCCCCC(=O)NO)cc1)c1ccc(OCC(O)C(C)(C)C)c(C)c1` (configuration not stated) the Activity [1] was “Active”, the Activity [2] was “Active” and the inhibition [3] was “Active; High Levels Of Acetylation Observed”. The inhibition (B16-F10 [4]) was “Active; High Levels Of Acetylation Observed” and the inhibition (B16-F10 [5]) was “Active; High Levels Of Acetylation Observed”.

For `Nc1ccn([C@@H]2O[C@H](CO)[C@@H](O)C2(F)F)c(=O)n1` [GEMCITABINE], the Activity [6] was “Non-toxic”, the Activity [7] was “Non-toxic” and the Activity (B16-F10 [8]) was “Active”.

With `CCC(CC)(c1ccc(C(=O)NCCCC(=O)NO)cc1)c1ccc(OCC(O)C(C)(C)C)c(C)n1` (configuration not stated) the Activity [1] was “Active; Did Not Appear To Be A Full Agonist”, the Activity [2] was “Active” and the inhibition [9] was “Active”. For the same compound, the inhibition (4TO7 [10]) was “Active”, the inhibition (4TO7 [11]) was “Active” and the Activity (4T1 [12]) was “Active”.

In the case of `CCC(CC)(c1ccc(C(=O)NCCCCCC(=O)NO)cc1)c1ccc(OCC(O)C(C)(C)C)c(C)n1` (configuration not stated), the Activity [1] was “Active; Did Not Appear To Be A Full Agonist”, the Activity [2] was “Active” and the inhibition [9] was “Active”. For the same compound, the inhibition (4TO7 [10]) was “Active”, the inhibition (4TO7 [11]) was “Active” and the Activity (4T1 [12]) was “Active”.

For `CCC(CC)(c1ccc(OCCCCCC(=O)NO)cc1)c1ccc(OCC(O)C(C)(C)C)c(C)n1` (configuration not stated), the Activity [1] was “Active”, the Activity [2] was “Active” and the inhibition [13] was “Active”. For the same compound, the inhibition (4T1 [14]) was “Active”, the inhibition (4T1 [15]) was “Active” and the Activity (B16-F10 [16]) was “Active”. The Activity [17] was “Non-toxic”, the Activity [18] was “Non-toxic” and the Activity (B16-F10 [19]) was “Active”. For the same compound, the Activity [20] was “Non-toxic”, the Activity [21] was “Non-toxic” and the Activity (4T1 [22]) was “Active”. For the same compound, the Activity (Mus musculus [23]) was “Active”, the Activity (Mus musculus [24]) was “Active” and the Activity (Mus musculus [25]) was “Active”. The Activity (Mus musculus [26]) was “Active” and the Activity (Mus musculus [27]) was “Active”.
